The source of these data is ChEMBL document CHEMBL1157516, “Discovery of a novel, potent and orally active series of gamma-lactams as selective NK1 antagonists” (Bioorg Med Chem Lett, 2008).

Test [1] relates to Meriones unguiculatus. Kind of test: Inhibition of GR-73632-induced foot tapping in Mongolian gerbil assessed as decrease in duration of foot tapping at 1 mg/kg, po after 2 hrs. Type of test: functional.
In test [2] the test system is Meriones unguiculatus. Kind of test: Inhibition of GR-73632-induced foot tapping in Mongolian gerbil assessed as decrease in duration of foot tapping at 1 mg/kg, po after 4 hrs. It counts as functional.
Test [3] concerns Meriones unguiculatus. Kind of test: Inhibition of GR-73632-induced foot tapping in Mongolian gerbil assessed as decrease in duration of foot tapping at 1 mg/kg, po after 6 hrs. It counts as functional.
The target of a further test is Substance-P receptor (Homo sapiens, UniProt P25103). Put plainly: Displacement of [3H]Sar-Met substance P from human recombinant NK1 receptor expressed in CHO cells. It counts as cell-based. On the technique in general: In a radioligand displacement assay an active substance lowers the binding of a labelled ligand.
Sequence of Substance-P receptor (P25103 whole entry): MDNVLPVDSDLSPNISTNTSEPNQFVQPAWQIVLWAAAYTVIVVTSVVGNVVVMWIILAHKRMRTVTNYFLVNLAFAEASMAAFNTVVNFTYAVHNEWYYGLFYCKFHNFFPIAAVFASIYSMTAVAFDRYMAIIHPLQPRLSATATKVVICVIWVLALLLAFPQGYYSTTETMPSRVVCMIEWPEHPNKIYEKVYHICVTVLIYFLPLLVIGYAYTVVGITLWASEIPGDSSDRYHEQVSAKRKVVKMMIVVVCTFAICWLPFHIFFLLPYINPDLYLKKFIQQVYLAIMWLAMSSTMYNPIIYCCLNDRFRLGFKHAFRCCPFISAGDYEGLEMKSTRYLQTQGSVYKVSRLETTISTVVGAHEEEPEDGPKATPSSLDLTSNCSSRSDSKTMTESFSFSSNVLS
In test [4] the target is T1, Substance-K receptor (Homo sapiens) (UniProt P21452).
T1 sequence (whole entry): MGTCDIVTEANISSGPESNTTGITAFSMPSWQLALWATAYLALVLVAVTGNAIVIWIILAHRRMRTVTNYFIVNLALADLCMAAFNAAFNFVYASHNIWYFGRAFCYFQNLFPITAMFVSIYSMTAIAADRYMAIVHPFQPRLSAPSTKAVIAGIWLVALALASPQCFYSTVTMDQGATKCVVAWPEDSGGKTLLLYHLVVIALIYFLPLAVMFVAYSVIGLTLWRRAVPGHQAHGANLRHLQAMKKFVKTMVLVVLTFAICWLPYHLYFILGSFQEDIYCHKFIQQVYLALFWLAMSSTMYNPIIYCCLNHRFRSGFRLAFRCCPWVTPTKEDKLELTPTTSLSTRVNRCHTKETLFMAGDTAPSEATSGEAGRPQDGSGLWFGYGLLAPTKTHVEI
Put plainly: Displacement of [3H]Neurokinin A from human recombinant NK2 receptor expressed in CHO cells at 3 uM. It counts as cell-based.

Test [5] deals with T2, Neuromedin-K receptor (Homo sapiens) (UniProt P29371).
T2 sequence (whole entry): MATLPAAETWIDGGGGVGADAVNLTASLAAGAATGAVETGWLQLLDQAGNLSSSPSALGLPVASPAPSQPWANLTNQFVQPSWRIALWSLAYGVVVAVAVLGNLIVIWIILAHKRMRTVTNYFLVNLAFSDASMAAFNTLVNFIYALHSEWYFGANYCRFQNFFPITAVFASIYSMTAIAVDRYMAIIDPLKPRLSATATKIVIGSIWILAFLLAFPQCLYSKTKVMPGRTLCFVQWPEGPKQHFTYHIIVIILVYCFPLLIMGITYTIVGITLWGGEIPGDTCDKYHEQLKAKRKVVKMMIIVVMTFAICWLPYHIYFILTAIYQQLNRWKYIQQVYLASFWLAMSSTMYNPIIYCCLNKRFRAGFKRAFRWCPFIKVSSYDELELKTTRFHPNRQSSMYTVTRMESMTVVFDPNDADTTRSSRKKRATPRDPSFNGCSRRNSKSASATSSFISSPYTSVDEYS
Put plainly: Displacement of [125I]neurokinin B from human recombinant NK3 receptor expressed in CHO cells at 10 uM. It counts as cell-based.

The target of another test is T3, Neuromedin-K receptor (Homo sapiens, UniProt P29371).
T3 sequence (P29371 whole entry): T2 sequence (whole entry)
Kind of test: Displacement of [125I]neurokinin B from human recombinant NK3 receptor expressed in CHO cells. Type of test: cell-based.

By inhibition in vivo is commonly meant how much of the control response was suppressed. For `C[C@@H](OC[C@@]1(c2ccccc2)CNC(=O)N1)c1cc(C(F)(F)F)cc(C(F)(F)F)c1`, the inhibition in vivo at 1 mg/kg with Meriones unguiculatus [1] is 35%; in the test on Meriones unguiculatus [2] it was 57%; in the test with Meriones unguiculatus [3], 48%.
By Ki is commonly meant the dissociation constant of the complex between target and ligand, obtained from inhibition or displacement. With `CC(=O)N[C@@H]1C[C@@](CO[C@H](C)c2cc(C(F)(F)F)cc(C(F)(F)F)c2)(c2ccccc2)NC1=O`, the Ki at Substance-P receptor turned out to be 0.9 nM. The inhibition in vivo at 1 mg/kg with Meriones unguiculatus [1] came to 80%; with Meriones unguiculatus [2] it was 97%; with Meriones unguiculatus [3], 71%.
Taken in the same sequence, the figures for `C[C@@H](OC[C@@]1(c2ccccc2)C[C@H](NS(C)(=O)=O)C(=O)N1)c1cc(C(F)(F)F)cc(C(F)(F)F)c1` were 0.6 nM, 10%, 58% and 43%.
Taken in the same sequence, the figures for `C[C@@H](OC[C@@]1(c2ccccc2)C[C@@H](N2CCCC2=O)C(=O)N1)c1cc(C(F)(F)F)cc(C(F)(F)F)c1` were 0.5 nM, 49%, 46% and 39%.
The term inhibition denotes the percentage by which the read-out fell short of the control. As for `CC(=O)N[C@H]1C[C@@](CO[C@H](C)c2cc(C(F)(F)F)cc(C(F)(F)F)c2)(c2ccccc2)NC1=O`, the Ki at Substance-P receptor worked out at 0.3 nM. Besides, the inhibition in vivo at 1 mg/kg in the test with Meriones unguiculatus [1] came out at 94%; in the test with Meriones unguiculatus [2] it was 94%; in the test on Meriones unguiculatus [3] it was 91%. For the same compound, the inhibition came out at 1.4% in test [4] and 43% in test [5].
For the compound `C[C@@H](OC[C@@]1(c2ccccc2)C[C@H](N2CCCC2)C(=O)N1)c1cc(C(F)(F)F)cc(C(F)(F)F)c1`, the Ki on Substance-P receptor worked out at 0.4 nM. The inhibition in vivo at 1 mg/kg with Meriones unguiculatus [1] was determined as 78%; in the test with Meriones unguiculatus [2], 60%; in the test with Meriones unguiculatus [3] it was 45%.
Taken in the same sequence, the figures for `C[C@H]1C[C@@](CO[C@H](C)c2cc(C(F)(F)F)cc(C(F)(F)F)c2)(c2ccccc2)NC1=O` were 0.7 nM, 77%, 85% and 44%.
Turning to `C[C@@H](OC[C@@]1(c2ccccc2)CCC(=O)N1)c1cc(C(F)(F)F)cc(C(F)(F)F)c1`, the values for the Ki at Substance-P receptor and at Neuromedin-K receptor were 0.6 nM and 3810 nM, respectively. The inhibition in vivo at 1 mg/kg with Meriones unguiculatus [1] stood at 92%; in the test on Meriones unguiculatus [2] it was 78%; with Meriones unguiculatus [3], 47%. The inhibition in test [4] turned out to be 0.1%.
`C[C@@H](OC[C@@]1(c2ccccc2)CC(N)C(=O)N1)c1cc(C(F)(F)F)cc(C(F)(F)F)c1` (stereo partly drawn): the Ki at Substance-P receptor came out at 0.4 nM. The values for the inhibition in vivo at 1 mg/kg in the test on Meriones unguiculatus [1], in the test with Meriones unguiculatus [2] and with Meriones unguiculatus [3] were 5%, 13% and 11%, respectively.
Take `C[C@@H]1C[C@@](CO[C@H](C)c2cc(C(F)(F)F)cc(C(F)(F)F)c2)(c2ccccc2)NC1=O`: the Ki at Substance-P receptor was found to be 2 nM. The inhibition in vivo at 1 mg/kg in the test with Meriones unguiculatus [1] stood at 11%; with Meriones unguiculatus [2], 2%; in the test on Meriones unguiculatus [3] it was 36%.
As to `C[C@@H](OC[C@@]1(c2ccccc2)C[C@@H](N2CCCCC2=O)C(=O)N1)c1cc(C(F)(F)F)cc(C(F)(F)F)c1`, at Substance-P receptor, the Ki worked out at 0.2 nM. Besides, the figures for the inhibition in vivo at 1 mg/kg in the test on Meriones unguiculatus [1], in the test on Meriones unguiculatus [2] and with Meriones unguiculatus [3] were 20%, 26% and 56%, respectively.
`C[C@@H](OC[C@@]1(c2ccccc2)C[C@H](N2CCCC2=O)C(=O)N1)c1cc(C(F)(F)F)cc(C(F)(F)F)c1`: the Ki at Substance-P receptor was 0.2 nM; on Neuromedin-K receptor, 1250 nM. The inhibition in vivo at 1 mg/kg was 100% in the test on Meriones unguiculatus [1], 100% in the test with Meriones unguiculatus [2] and 98% in the test with Meriones unguiculatus [3]. Moreover, the inhibition in test [4] came to 28%.
For `C[C@@H](OC[C@@]1(c2ccccc2)CC(O)C(=O)N1)c1cc(C(F)(F)F)cc(C(F)(F)F)c1` (stereo partly drawn), on Substance-P receptor, the Ki turned out to be 0.5 nM. Also, the results for the inhibition in vivo at 1 mg/kg in the test on Meriones unguiculatus [1], in the test with Meriones unguiculatus [2] and in the test on Meriones unguiculatus [3] were 27%, 35% and 1%, respectively.
Taken in the same sequence, the figures for `C[C@@H](OC[C@@]1(c2ccccc2)C[C@@H](NS(C)(=O)=O)C(=O)N1)c1cc(C(F)(F)F)cc(C(F)(F)F)c1` were 2.6 nM, 0%, 15% and 0%.
Taken in the same sequence, the figures for `CCC(=O)N[C@@H]1C[C@@](CO[C@H](C)c2cc(C(F)(F)F)cc(C(F)(F)F)c2)(c2ccccc2)NC1=O` were 0.3 nM, 83%, 16% and 19%.
Regarding `C[C@@H](OC[C@@]1(c2ccccc2)C[C@H](N2CCCCC2=O)C(=O)N1)c1cc(C(F)(F)F)cc(C(F)(F)F)c1`, at Substance-P receptor, the Ki turned out to be 0.2 nM. Moreover, the figures for the inhibition in vivo at 1 mg/kg in the test on Meriones unguiculatus [1], in the test on Meriones unguiculatus [2] and in the test with Meriones unguiculatus [3] were 74%, 37% and 63%, respectively.
Taken in the same sequence, the figures for `CCC(=O)N[C@H]1C[C@@](CO[C@H](C)c2cc(C(F)(F)F)cc(C(F)(F)F)c2)(c2ccccc2)NC1=O` were 0.3 nM, 84%, 97% and 90%.
